Assay results published in patent US6699686B1, “Modified nuclear glucocorticoid receptor, fusion protein, and DNA fragments coding for said receptor and said fusion protein” (Association pour le Development de la Recherche en …, priority 1996, dated 2004).
Where a chain is given by its changes, count along the chain named.

T1: hGR(I747/T) (Homo sapiens, UniProt P04150, I747T)
T1 construct: The same shift was observed as with the complete GR (I747/T) mutant; expressed in transfected cells
T1 sequence (P04150 1-777 I747T): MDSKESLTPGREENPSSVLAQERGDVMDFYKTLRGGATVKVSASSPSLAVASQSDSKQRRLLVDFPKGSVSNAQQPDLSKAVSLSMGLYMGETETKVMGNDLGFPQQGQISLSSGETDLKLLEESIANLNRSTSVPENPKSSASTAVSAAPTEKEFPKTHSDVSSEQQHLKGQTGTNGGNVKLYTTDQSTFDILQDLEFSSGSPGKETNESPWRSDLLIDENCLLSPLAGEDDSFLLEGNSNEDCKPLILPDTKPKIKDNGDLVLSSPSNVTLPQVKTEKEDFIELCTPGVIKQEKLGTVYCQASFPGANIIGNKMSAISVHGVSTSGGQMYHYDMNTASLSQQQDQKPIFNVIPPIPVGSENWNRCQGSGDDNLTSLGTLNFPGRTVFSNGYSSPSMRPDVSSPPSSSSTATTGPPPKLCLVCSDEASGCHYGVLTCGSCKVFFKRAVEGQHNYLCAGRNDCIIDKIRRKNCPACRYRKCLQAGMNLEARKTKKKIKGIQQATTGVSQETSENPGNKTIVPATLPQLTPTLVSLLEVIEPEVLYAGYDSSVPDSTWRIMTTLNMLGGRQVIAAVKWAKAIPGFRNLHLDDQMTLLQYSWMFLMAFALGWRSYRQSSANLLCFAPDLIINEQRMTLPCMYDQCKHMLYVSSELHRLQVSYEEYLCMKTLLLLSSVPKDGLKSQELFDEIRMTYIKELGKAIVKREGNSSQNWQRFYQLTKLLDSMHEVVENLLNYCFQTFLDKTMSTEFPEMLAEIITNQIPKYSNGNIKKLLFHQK

T2: wild-type hGR (Homo sapiens, UniProt P04150)
T2 construct: expressed in transfected cells
T2 sequence (P04150 1-777): T1 sequence (P04150 1-777 I747T) with T747I

T3: GR(I747/T) glucocorticoid receptor mutant (Homo sapiens, UniProt P04150 SEQ:1-777)
T3 chain: T1 sequence (P04150 1-777 I747T)

B1: synthetic palindromic GRE (pGRE-tk-Luc) (dsDNA)
DNA 1: AGAACACAGTGTTCT
DNA 2: AGAACACTGTGTTCT

Columns and labels:
hGR(I747/T) = target: T1, hGR(I747/T); assay: Transcriptional activation of pTAT-tk-Luc luciferase reporter in transiently transfected CV-1 cells; format: cell-based; details: for transactivation by the I747/T mutant receptor compared with wild-type receptor / Luciferase activity % hGR (I747/T) / EC50: CV-1 cells, pTAT-tk-Luc; for Luciferase activity % hGR (I747/T): 24 h ligand, mean of three independent assays; for EC50: ligand concentration giving 50% of maximum transcriptional response; for % EC50: EC50 hGR(I747/T) relative to EC50 wild type
Description: (§1) The receptors were transiently expressed in GR-free CV-1 cells, conjointly with a luciferase reporter gene under the control of the tyrosine aminotransferase promoter (pTAT-tk-Luc).
(§2) After transfection, the cells were incubated for 24 hours with increasing concentrations of Dex, and they were then subjected to an assay of the β-galactosidase and luciferase activities, as described in “Materials and Methods”. The luciferase activity was normalized with the β-galactosidase activity, and the value obtained in the absence of ligand was subtracted for each point. The results were expressed as a percentage of the maximum luciferase activity obtained for each receptor. Each point is the mean±standard deviation of the mean of four separate determinations carried out in duplicate. […] The [^3H] steroid attached was measured after treatment with dextran-coated charcoal. The results presented are those for a single assay carried out in duplicate and representative of three separate assays.
(§3) Co-transfections were carried out and dose-response curves were constructed as described in FIG. 2. […] The assays of luciferase and β-galactosidase activity were carried out as described in “Materials and Methods”. The mean values of three independent assays are given in this table. nm=not measurable.
(§4) The CV-1 and Cos-7 cells were cultured in Dulbeco's modified Eagle's medium (DMEM) containing 10% (v/v) of fetal calf serum (FCS) (Gibco, Grand Island, N.Y.), in a humidified atmosphere containing 5% CO2. The HeLa cells were cultured under the same conditions. Transient transfections were carried out in 6-well multiplates according to the calcium phosphate procedure already described (42). A reference recombinant plasmid, pCMV-βgal, expressing bacterial β-galactosidase, was transfected conjointly with the receptor expression vector and the corresponding reporter gene so as to correct possible variations in he transfection efficiency. The precipitate was removed by washing after 24 hours, and the cells were kept in DMEX without FCS but containing hormone. After another 24 hours, the cells were rinsed and lysed for 15 minutes with 0.3 ml of lysis buffer [25 mM Tris.phosphate, pH 7.8, 8 mM […], 1% Triton X100, 10% glycerol (48)]. The corresponding luciferase activity as determined on an aliquot fraction (0.1 ml), by evaluation of the luminescence peak (for an integration time of 15 seconds), after injection of 0.1 ml of 1 mM luciferin in an LKB luminometer. The β-galactosidase was determined by the method modified by Bocquel et al. (49), for controlling the efficiency of each transfection.
(§5) The reporter gene pTAT-tk-Luc was provided by D. Gagne and was constructed as follows: an intermediate plasmid pTAT was first generated by insertion of the 966 bp EcoRI-BamHI segment obtained from pKT531 [offered freely by T. Grande (50)] into the corresponding sites of the vector pUC19 (Pharmacia). The fragment containing the sequence coding for the firefly luciferase and the thymidine kinase (tk) minimal promoter obtained from the Herpes simplex virus was isolated in the form of a BamHI fragment from pvit-tk-Luc (51) and inserted, downstream of the TAT promoter, into the corresponding site of pTAT. The reporter plasmid pGRE-tk-Luc was constructed by ligation of the fragment of HindIII-BglII digestion of pGRE-tk-CAT (52), which contains a synthetic GRE (AGAACAcagTGTTCT) upstream of the tk minimal promoter, into the HindIII-BglII sites of pLuc (53). The reporter gene p(17M)5-βGlob-Luc has been previously described (54). The reporter plasmid p(17M)5-tata-Luc was constructed from the plasmid p(17M)5-tata-CAT (55) by digestion with XhoI-BamHI and isolation of the fragment containing (17M5)-tata. This fragment was then inserted into the vector pGL2 (Promega) digested with the same restriction enzymes.

wild-type hGR = target: T2, wild-type hGR; assay: as above; format: cell-based; design: Luciferase activity % Wild type: concentration or dose not given beside the values; details: for Luciferase activity % Wild type: 24 h ligand, mean of three independent assays; for EC50: ligand concentration giving 50% of maximum transcriptional response
Description: as §1, §2, §3, §4, §5

[1] = tested on: Gal4(1-147)-GR(I747/T)(500-777) I747T (Saccharomyces cerevisiae / Homo sapiens); assay: cell_activity; details: EC50 is for dexamethasone; p(17M)5-βGlob-Luc in HeLa cells; 2e-7 M with tata-Luc
[2] = tested on: Gal4(1-147)-GR(500-777) (Saccharomyces cerevisiae / Homo sapiens); assay: cell_activity; details: EC50 is for dexamethasone; p(17M)5-βGlob-Luc in HeLa cells; 2e-9 M with tata-Luc
[3] = target: GR(I747/T) glucocorticoid receptor mutant (Homo sapiens) (UniProt P04150); assay: cell_activity; details: EC50 is for dexamethasone; luciferase reporter in CV-1 cells; cortisol 15% and corticosterone/aldosterone 0% activity
[4] = target: wild-type glucocorticoid receptor (hGR) T747I (reversion to wild type) (Homo sapiens) (UniProt P04150); assay: cell_activity; details: EC50 is for dexamethasone; luciferase reporter in CV-1 cells
[5] = target: T3, GR(I747/T) glucocorticoid receptor …; assay: cell_activity; EC50 is for dexamethasone; luciferase reporter in CV-1 cells
Description: The $EC50$ values were determined graphically.
The HeLa cells were cultured under the same conditions.

Row | Molecule | transactivation by the I747/T mutant receptor compared with wild-type receptor (hGR(I747/T)) | Luciferase activity % hGR (I747/T) (hGR(I747/T)) | EC50 (hGR(I747/T)) | % EC50 (hGR(I747/T)) | Luciferase activity % Wild type (wild-type hGR) | EC50 (wild-type hGR) | EC50 [1] | EC50 [2] | EC50 [3] | EC50 [4] | EC50 [5]
1 | CC1(C)O[C@@H]2C[C@H]3[C@@H]4C[C@H](F)C5=CC(=O)C=C[C@]5(C)[C@@]4(F)[C@@H](O)C[C@]3(C)[C@]2(C(=O)CO)O1 [Fluocinolone, fluocinolone acetonide] | a higher activity | 100% | 3 nM | 20% | 75% | 0.15 nM |  |  |  |  | 
2 | CC#C[C@]1(O)CC[C@H]2[C@@H]3C=C(C)C4=CC(=O)C=C[C@]4(C)[C@H]3[C@@H](O)C[C@@]21C [RU28362] | the same transactivation as with the wild-type receptor | 88% | 7 nM | 23% | 90% | 0.3 nM |  |  |  |  | 
3 | CC1(C)O[C@@H]2C[C@H]3[C@@H]4CCC5=CC(=O)C=C[C@]5(C)[C@@]4(F)[C@@H](O)C[C@]3(C)[C@]2(C(=O)CO)O1 [TA, triamcinolone acetonide] |  | 102% | 20 nM |  | 98% | 0.5 nM |  |  |  |  | 
4 | (17M)5 Gal4 response element |  |  |  |  |  |  | 150 nM | 1.7 nM |  |  | 
5 | TAT promoter (pTAT-tk-Luc), two GREs |  |  |  |  |  |  |  |  | 40 nM | 0.4 nM | 
6 | bimedrazol | a higher activity | 180% | 2 nM | 20% | 100% | 0.1 nM |  |  |  |  | 
7 | B1 |  |  |  |  |  |  |  |  |  |  | 20 nM
